For assay [1], the target named is T1, MtbNei2 (Rv3297) (Mycobacterium tuberculosis, UniProt P9WNC1).
T1 sequence (P9WNC1 1-255): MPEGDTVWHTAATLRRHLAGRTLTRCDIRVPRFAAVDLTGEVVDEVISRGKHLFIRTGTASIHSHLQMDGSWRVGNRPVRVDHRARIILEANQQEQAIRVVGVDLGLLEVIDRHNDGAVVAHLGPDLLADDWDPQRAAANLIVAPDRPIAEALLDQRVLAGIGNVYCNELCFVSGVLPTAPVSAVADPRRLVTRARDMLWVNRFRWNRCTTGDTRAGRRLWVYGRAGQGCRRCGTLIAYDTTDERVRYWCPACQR
Description: In vitro inhibition of Uracil DNA glycosylase activity of MtbNei2. It counts as biochemical. Particulars: for Inhibition of Uracil DNA glycosylase activity (in words): 50-800 µM inhibitor, 80 nM MtbNei2.

For assay [2], the target named is T1, MtbNei2 (Rv3297). Kind of assay: In vitro inhibition of AP site cleavage. Type of assay: biochemical. Particulars: for Inhibition of AP site cleavage activity (in words): 50-800 µM inhibitor, 80 nM MtbNei2.

Data on two compounds can be found in publication PMC5613217 (Biochemistry and Biophysics Reports, 2017).

For the compound `COc1c2c(cc3c1[C@@H]1Oc4c(ccc(O)c4CC=C(C)C)[C@@H]1CO3)OC(C)(C)C=C2` [NSC250430, Gangetin], in assay [1], half-maximal inhibition (IC50) required 76.2 µM and the “Inhibition of Uracil DNA glycosylase activity (in words)” value is given as “good inhibition”. For the same compound, in assay [2], the IC50 – broadly, the concentration that inhibits the measured activity by half – was 43.6 µM and the “Inhibition of AP site cleavage activity (in words)” value is “good inhibition”.

As for `C[C@H]1Oc2cc3c(-c4c(O)cc(O)c5c(O)c6c(cc45)O[C@H](C)[C@@H](C)C6=O)c(O)cc(O)c3c(O)c2C(=O)[C@@H]1C` [NSC345647, Chaetochromin], in assay [1], the IC50 was 92.7 µM and the “Inhibition of Uracil DNA glycosylase activity (in words)” value was “good inhibition”. Moreover, in assay [2], the half-maximal inhibitory concentration (IC50) was determined as 84.7 µM and the “Inhibition of AP site cleavage activity (in words)” value is “good inhibition”.
